Source: US20100105724A1, “CRYSTALLINE AND AMORPHOUS FORMS OF PALONOSETRON HYDROCHLORIDE” (HELSINN HEALTHCARE SA, priority 2006, published 2010)
Each block holds one compound with its values, some of them ahead of it.

Experiments:
[1] = target: T1, 5-hydroxyltryptamine 3 receptor precursor (5-HT3 receptor) (Homo sapiens, UniProt P46098); conditions: in vitro, literature (Wong 1995; Eglen 1995); cited from earlier work
T1 sequence (P46098 24-478): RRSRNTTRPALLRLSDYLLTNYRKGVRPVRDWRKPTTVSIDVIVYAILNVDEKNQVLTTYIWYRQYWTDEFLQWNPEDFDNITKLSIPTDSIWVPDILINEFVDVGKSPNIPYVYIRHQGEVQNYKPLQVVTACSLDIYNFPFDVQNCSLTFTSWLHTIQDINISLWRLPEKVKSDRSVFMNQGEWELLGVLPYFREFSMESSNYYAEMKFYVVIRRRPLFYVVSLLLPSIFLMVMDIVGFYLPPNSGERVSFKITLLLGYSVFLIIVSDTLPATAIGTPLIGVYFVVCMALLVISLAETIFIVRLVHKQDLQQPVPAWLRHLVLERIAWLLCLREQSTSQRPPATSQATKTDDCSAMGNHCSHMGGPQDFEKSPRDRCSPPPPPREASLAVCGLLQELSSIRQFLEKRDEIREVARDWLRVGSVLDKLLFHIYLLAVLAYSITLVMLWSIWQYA

[2] = tested on: other receptors such as dopamine receptors; conditions: literature (Wong 1995; Eglen 1995); cited from earlier work
[3] = Physical stability determination of polymorphs and amorphous phase; assay type: physicochemical
Protocol: Physical Stability Determination—The physical stability of the polymorphs was determined by wetting the powders with water, suspending in ethanol, ethyl acetate, and exposing them to 93% relative humidity (RH) and 26% RH. The DSC thermogram and the x-ray diffraction pattern were obtained after a few days to determine if phase changes had occurred. The physical stability of the amorphous phase was determined by equilibrating a sample at 40° C., 75% RH for two weeks.

[4] = Hygroscopicity measurement (water absorption at constant relative humidity); assay type: physicochemical; conditions: for hygroscopicity: humidities up to 82% RH
Protocol: Hygroscopicity Measurement—Samples of 20-30 mg of the compound were weighed into small weighing bottles with ground glass tops. The bottles were dried in a 60° C. oven for 30 minutes. The samples were cooled in a dessicator containing anhydrous CaSO4 and then transferred to humidity chambers maintained at constant relative humidities with saturated salt solutions. The samples were weighed at different time intervals until equilibrium was reached. The percent moisture absorbed at a given time was calculated as follows: % Weight Change=((Wt−Wo)/Wo)×100 wherein W1=sample weight at given time after exposure to the indicated relative humidity, and Wo=initial sample weight.

phase change in suspension ([3]; suspended in ethanol for one week at ambient temperature (~25° C.)): converted to Form I
Structure (SMILES): Cl.O=C1c2cccc3c2[C@H](CCC3)CN1[C@@H]1CN2CCC1CC2 [Form II]

physical stability at low humidity ([3]; 26% RH, two weeks): remained amorphous | phase change on equilibration ([3]; 40° C., 75% RH, two weeks): converted to Form I | solid form after deliquescence at ambient humidity ([3]; ambient humidity, subsequent to deliquescence): re-solidified as Form II | behaviour on exposure to ambient humidity ([3]; removed from the desiccator, ambient humidity): deliquesced immediately
Structure (SMILES): Cl.O=C1c2cccc3c2[C@H](CCC3)CN1[C@@H]1CN2CCC1CC2 [amorphous form]

More lines, now with the values behind:

Structure (SMILES): O=C1c2cccc3c2[C@H](CCC3)CN1[C@@H]1CN2CCC1CC2 (single isomer, unassigned) [Palonosetron]
affinity as an antagonist for the 5-HT3 receptor [1]: high affinity | affinity for other receptors such as dopamine receptors [2]: low affinity

Structure (SMILES): Cl.O=C1c2cccc3c2[C@H](CCC3)CN1[C@@H]1CN2CCC1CC2 [Form I]
Water absorbed ([4]; 50% relative humidity, 1 day): 0.02 weight % | Water absorbed ([4]; 50% relative humidity, 4 days): 0.14 weight % | Water absorbed ([4]; 50% relative humidity, 8 days): 0.05 weight % | Water absorbed ([4]; 75% relative humidity, 1 day): 0.15 weight % | Water absorbed ([4]; 75% relative humidity, 4 days): 0.22 weight % | Water absorbed ([4]; 75% relative humidity, 8 days): 0.22 weight % | Water absorbed ([4]; 82% relative humidity, 1 day): 0.14 weight % | Water absorbed ([4]; 82% relative humidity, 4 days): 0.25 weight % | Water absorbed ([4]; 82% relative humidity, 8 days): 0.54 weight % | moisture absorbed ([4]; 93% RH, after eight days): 26% | physical change on exposure to humidity ([4]; 93% RH, after eight days): turning into a paste | physical change on exposure to humidity ([4]; 93% RH, two weeks): liquefied | Water absorbed ([4]; 93% relative humidity, 1 day): 0.07 weight % | Water absorbed ([4]; 93% relative humidity, 4 days): 0.63 weight % | Water absorbed ([4]; 93% relative humidity, 8 days): 25.7 weight % | physical state of sample ([4]; 93% relative humidity, 8 days): Semi | Water absorbed (physical state printed) ([4]; 93% relative humidity, 15 days): Liquid | hygroscopicity [4]: not hygroscopic | Water absorbed ([4]; humidities up to 82%, after eight days): 0.5% | physical stability at high humidity ([3]; 93% relative humidity, two weeks, ambient temperature): deliquesced | physical stability as a suspension ([3]; suspension in ethanol): stable | physical stability as a suspension ([3]; suspension in ethyl acetate): stable | physical stability as a suspension ([3]; suspension in water): stable

Structure (SMILES): Cl.O=C1c2cccc3c2[C@H](CCC3)CN1[C@@H]1CN2CCC1CC2 [Palonosetron hydrochloride, (3aS)-2-[(S)-1-Azabicyclo [2.2.2]oct-3-yl]-2,3,3a,4,5,6-hexahydro-1-oxo-1Hbenz[de] isoquinoline hydrochloride]
physical change on exposure to humidity ([4]; 93% RH, after eight days, hydrochloride): liquefies | hygroscopicity ([4]; hydrochloride): nonhygroscopic
